Test results as given in patent publication US11066392B2, “Inhibitors of indoleamine 2,3-dioxygenase and methods of their use” (BRISTOL-MYERS SQUIBB COMPANY, priority 2017, dated 2021).
Where two headings read alike, the source gives them in different places.

Tests used:
human IDO1 = target: T1, human IDO1 (Homo sapiens, UniProt P14902); test: HEK293 cell-based indoleamine 2,3-dioxygenase (IDO) assay; conditions: human IDO1/HEK293 cells
T1 construct: expressed in transfected cells
Method: Assessment of inhibitor activity in HEK293 cell-based indoleamine 2,3-dioxygenase (IDO) assay.
HEK293 cells were transfected with a pCDNA-based mammalian expression vector harboring human IDO1 cDNA (NM 002164.2) by electroporation. They were cultured in medium (DMEM with 10% FBS) containing 1 mg/ml G418 for two weeks. Clones of HEK293 cells that stably expressed human IDO1 protein were selected and expanded for IDO inhibition assay.
The human IDO1/HEK293 cells were seeded at 10,000 cells per 50 μL per well with RPMI/phenol red free media contains 10% FBS in a 384-well black wall clear bottom tissue culture plate (Matrix Technologies LLC) 100 nL of certain concentration of compound was then added to each well using ECHO liquid handling systems. The cells were incubated for 20 hours in 37° C. incubator with 5% CO2.
The compound treatments were stopped by adding trichloroacetic acid (Sigma-Aldrich) to a final concentration at 0.2%. The cell plate was further incubated at 50° C. for 30 minute. The equal volume supernatant (20 μL) and 0.2% (w/v) Ehrlich reagent (4-dimethylaminobenzaldehyde, Sigma-Aldrich) in glacial acetic acid were mixed in a new clear bottom 384-well plate. This plate was then incubated at room temperature for 30 minute. The absorbance at 490 nm was measured on Envision plate reader.
Compound IC50 values were calculated using the counts of 500 nM of a reference standard treatment as one hundred percent inhibition, and counts of no compound but DMSO treatment as zero percent inhibition.
Activity for compounds described herein is provided in Table 1, wherein potency levels are provided as follows: (Potency: IDO IC50: A<0.01 μM; B<0.1 μM; C<10 μM)

[1] = target: indoleamine 2,3-dioxygenase (IDO) (Homo sapiens, UniProt P14902); test: HeLa cell-based indoleamine 2,3-dioxygenase (IDO) assay (kynurenine production, IFNγ-stimulated); conditions: HeLa cells
Sequence of indoleamine 2,3-dioxygenase (IDO) (P14902 whole entry): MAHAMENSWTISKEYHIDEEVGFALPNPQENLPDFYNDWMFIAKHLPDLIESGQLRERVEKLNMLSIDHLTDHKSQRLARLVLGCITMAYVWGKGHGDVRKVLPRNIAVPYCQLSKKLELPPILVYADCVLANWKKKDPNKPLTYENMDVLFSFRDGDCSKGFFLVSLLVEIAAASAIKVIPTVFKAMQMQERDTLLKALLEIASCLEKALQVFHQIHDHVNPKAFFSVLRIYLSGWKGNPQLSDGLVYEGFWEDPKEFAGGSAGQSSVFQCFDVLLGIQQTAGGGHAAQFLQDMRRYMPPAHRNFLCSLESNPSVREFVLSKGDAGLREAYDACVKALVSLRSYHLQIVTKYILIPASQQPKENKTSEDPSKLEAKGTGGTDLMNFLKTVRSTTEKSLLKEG

[2] = 20 hours incubation, read-out: IDO1 HEK Human IC50
[3] = potency class, read-out: Patent Potency Hela IC50 A < 10 nM, B > 10 nM, C > 100 nM
[4] = IFNγ 25 ng/mL, 48 hour incubation, read-out: IDO Hela IC50

T1 sequence (P14902 whole entry): as above

Work on CC[C@@H](NC(=O)c1ccc(OC)nc1)[C@H]1CC[C@@H](c2ccnc3ccc(F)cc32)CC1 (single isomer, unassigned) [Example 10a, N-(1-(4-(6-Fluoroquinolin-4-yl)cyclohexyl)propyl)-6-methoxynicotinamide] yielded an IC50 (human IDO1; [2]) of 224 nM.
In the case of CC[C@@H](NC(=O)c1ccc(OC)nc1)[C@H]1CC[C@@H](c2ccnc3ccc(F)cc32)CC1 (single isomer, unassigned) [Example 10b, N-(1-(4-(6-Fluoroquinolin-4-yl)cyclohexyl)propyl)-6-methoxynicotinamide], the IC50 (human IDO1; potency class, read-out: Patent Potency HEK IC50 A < 10 nM, B > 10 nM, C > 100 nM) is reported as < 10 nM and the IC50 [1, 3] is reported as < 10 nM.
Work on CC[C@@H](NC(=O)c1ccc(OC)nc1)[C@H]1CC[C@@H](c2ccnc3ccc(F)cc32)CC1 (single isomer, unassigned) [Example 10c, N-(1-(4-(6-Fluoroquinolin-4-yl)cyclohexyl)propyl)-6-methoxynicotinamide] yielded an IC50 (human IDO1; [2]) of 55 nM.
In the case of CC[C@@H](NC(=O)c1ccc(OC)nc1)[C@H]1CC[C@@H](c2ccnc3ccc(F)cc32)CC1 (single isomer, unassigned) [Example 10d, N-(1-(4-(6-Fluoroquinolin-4-yl)cyclohexyl)propyl)-6-methoxynicotinamide], the IC50 (human IDO1; [2]) is reported as 37 nM.
In the case of COc1ccc(-c2ccc(C(=O)N[C@H](C)[C@H]3CC[C@@H](c4ccnc5ccc(F)cc54)CC3)cn2)cn1 [Example 1, N—((R)-1-((1s,4s)-4-(6-Fluoroquinolin-4-yl)cyclohexyl)ethyl)-6′-methoxy-2,3′-bipyridine-5-carboxamide], the IC50 (human IDO1; [2]) is reported as 56 nM and the IC50 [1, 4] is reported as 30 nM.
COc1ccc(C(=O)N[C@H](C)[C@H]2CC[C@@H](c3ccnc4ccc(F)cc43)CC2)cn1 [Example 2, N-((R)-1-((1s,4S)-4-(6-Fluoroquinolin-4-yl)cyclohexyl)ethyl)-6-methoxynicotinamide] was tested, and the IC50 (human IDO1; [2]) was 1 nM and the IC50 [1, 3] was < 10 nM.
C[C@@H](NC(=O)c1ccc(O)nc1)[C@H]1CC[C@@H](c2ccnc3ccc(F)cc32)CC1 [Example 3, N-((R)-1-((1s,4S)-4-(6-Fluoroquinolin-4-yl)cyclohexyl)ethyl)-6-hydroxynicotinamide] showed an IC50 (human IDO1; [2]) of 252 nM.
C[C@@H](NC(=O)c1ccc(-n2cccn2)nc1)[C@H]1CC[C@@H](c2ccnc3ccc(F)cc32)CC1 [Example 4, N-((R)-1-((1s,4S)-4-(6-Fluoroquinolin-4-yl)cyclohexyl)ethyl)-6-(1H-pyrazol-1-yl)nicotinamide] was tested, and the IC50 (human IDO1; [2]) was 11 nM and the IC50 [1, 4] was 10 nM.
C[C@@H](NC(=O)c1ccc(Cl)nc1)[C@H]1CC[C@@H](c2ccnc3ccc(F)cc32)CC1 [Example 5, 6-Chloro-N-((R)-1-((1s,4S)-4-(6-fluoroquinolin-4-yl)cyclohexyl)ethyl)nicotinamide] was tested, and the IC50 (human IDO1; [2]) was 10 nM and the IC50 [1, 3] was < 10 nM.
COCCOc1ccc(-c2ccc(C(=O)N[C@H](C)[C@H]3CC[C@@H](c4ccnc5ccc(F)cc54)CC3)cn2)cc1 [Example 6] gave an IC50 (human IDO1; [2]) of 488 nM.
With C[C@@H](NC(=O)c1ccc(F)nc1)[C@H]1CC[C@@H](c2ccnc3ccc(F)cc32)CC1 [Example 7, 6-Fluoro-N-((R)-1-((1s,4S)-4-(6-fluoroquinolin-4-yl)cyclohexyl)ethyl)nicotinamide] the IC50 (human IDO1; [2]) was 5 nM and the IC50 [1, 4] was 10 nM.
In the case of COc1ncc(C(=O)N[C@H](C)[C@H]2CC[C@@H](c3ccnc4ccc(F)cc43)CC2)cn1 [Example 8, N-((R)-1-((1s,4S)-4-(6-Fluoroquinolin-4-yl)cyclohexyl)ethyl)-2-methoxypyrimidine-5-carboxamide], the IC50 (human IDO1; [2]) is reported as 5 nM and the IC50 [1, 4] is reported as 10 nM.
For Cc1ncc(C(=O)N[C@H](C)[C@H]2CC[C@@H](c3ccnc4ccc(F)cc43)CC2)cn1 [Example 9, N-((R)-1-((1s,4S)-4-(6-Fluoroquinolin-4-yl)cyclohexyl)ethyl)-2-methylpyrimidine-5-carboxamide], the IC50 (human IDO1; [2]) was 28 nM.
C[C@@H](NC(=O)c1cccnc1)[C@H]1CC[C@@H](c2ccnc3ccc(F)cc32)CC1 [Example 33, N—((R)-1-((cis)-4-(6-fluoroquinolin-4-yl)cyclohexyl)ethyl)nicotinamide] gave an IC50 (human IDO1; [2]) of 10 nM and an IC50 [1, 4] of 10 nM.
C[C@@H](NC(=O)c1ccncc1)[C@H]1CC[C@@H](c2ccnc3ccc(F)cc32)CC1 [Example 34, N-((R)-1-((cis)-4-(6-fluoroquinolin-4-yl)cyclohexyl)ethyl)isonicotinamide] showed an IC50 (human IDO1; [2]) of 13 nM and an IC50 [1, 4] of 10 nM.
With C[C@@H](NC(=O)c1cnccn1)[C@H]1CC[C@@H](c2ccnc3ccc(F)cc32)CC1 [Example 35, N-((R)-1-((cis)-4-(6-fluoroquinolin-4-yl)cyclohexyl)ethyl)pyrazine-2-carboxamide] the IC50 (human IDO1; [2]) was 22 nM and the IC50 [1, 4] was 10 nM.
In the case of C[C@@H](NC(=O)c1cncnc1)[C@H]1CC[C@@H](c2ccnc3ccc(F)cc32)CC1 [Example 36, N-((R)-1-((cis)-4-(6-fluoroquinolin-4-yl)cyclohexyl)ethyl)pyrimidine-5-carboxamide], the IC50 (human IDO1; [2]) is reported as 39 nM and the IC50 [1, 4] is reported as 30 nM.
With CCC(NC(=O)c1ccc(OC)nc1)[C@H]1CC[C@@H](c2cc[nH]c(=O)c2C(F)F)CC1 (some centres unmarked) [Example 64-2, N-(1-((1s,4s)-4-(3-(difluoromethyl)-2-oxo-1,2-dihydropyridin-4-yl)cyclohexyl)propyl)-6-methoxynicotinamide] the IC50 [1, 3] was > 100 nM.
